Measured values as given in patent US20230159527A1, “COMPOUNDS AS BCL-2 INHIBITORS” (Fochon Pharmaceuticals, Ltd., priority 2020, published 2023).

Tested on: Toledo cells
Test: Cell proliferation assay, Toledo cells (MTS, 72 h)
Format: cell-based
Conditions: Homo sapiens, Toledo cells, MTS, read-out: Toledo IC50
Summary of the method: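 IC50 was derived from 490 nm absorbance after a 2 h MTS step. Before that, compounds at 1.5–10000 nM final (nine points) acted on Toledo cells for 72 h at 37 °C, 5% CO2. Cells were seeded at 30000/well in 10% FBS RPMI-1640 and rested 4 h before dosing.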

Question: `CC(C)c1ccccc1[C@@H]1CCCN1C1CC2(CCN(c3ccc(C(=O)NS(=O)(=O)c4cc5c(c([N+](=O)[O-])c4)N[C@H]([C@H]4CC[C@H](O)CC4)CO5)c(Oc4cnc5[nH]cc(F)c5c4)c3)CC2)C1` (single isomer, unassigned) [Example D-42, 2-((3-fluoro-1H-pyrrolo[2,3-b]pyridin-5-yl)oxy)-N-(((R)-3-((1r,4R)-4-hydroxycyclohexyl)-5-nitro-3,4-dihydro-2H-benzo[b][1,4]oxazin-7-yl)sulfonyl)-4-(2-((R or S)-2-(2-isopropylphenyl)pyrrolidin-1-yl)-7-azaspiro[3.5]nonan-7-yl)benzamide] was tested. Which IC50 did it give?
Answer: 1 nM

Question: With `CC(C)c1ccccc1[C@@H]1CCCN1C1CC2(CCN(c3ccc(C(=O)NS(=O)(=O)c4cc5c(c([N+](=O)[O-])c4)N[C@@H]([C@H]4CC[C@](C)(O)CC4)CO5)c(Oc4cc5cc[nH]c5nc4OCCO)c3)CC2)C1` (single isomer, unassigned) [Example D-68, N-(((S)-3-((1r,4S)-4-hydroxy-4-methylcyclohexyl)-5-nitro-3,4-dihydro-2H-benzo[b][1,4]oxazin-7-yl)sulfonyl)-2-((6-(2-hydroxyethoxy)-1H-pyrrolo[2,3-b]pyridin-5-yl)oxy)-4-(2-((R or S)-2-(2-isopropylphenyl)pyrrolidin-1-yl)-7-azaspiro[3.5]nonan-7-yl)benzamide] as the compound, how does the IC50 read?
Answer: 1 nM

Question: For `CC(C)c1ccccc1[C@@H]1CCC[C@@H]1N1CC2(CCN(c3ccc(C(=O)NS(=O)(=O)c4cc5c(c([N+](=O)[O-])c4)N[C@@H]([C@H]4CC[C@](C)(O)CC4)CO5)c(Oc4cc5cc[nH]c5nc4OC4COC4)c3)CC2)C1` (single isomer, unassigned) [Example D-108, N-(((S)-3-((1r,4S)-4-hydroxy-4-methylcyclohexyl)-5-nitro-3,4-dihydro-2H-benzo[b][1,4]oxazin-7-yl)sulfonyl)-4-(2-((1S,2S or 1R,2R)-2-(2-isopropylphenyl)cyclopentyl)-2,7-diazaspiro[3.5]nonan-7-yl)-2-((6-(oxetan-3-yloxy)-1H-pyrrolo[2,3-b]pyridin-5-yl)oxy) benzamide], which IC50 is on record?
Answer: 1 nM

Question: How did the IC50 turn out when `COc1nc2[nH]ccc2cc1Oc1cc(N2CCC3(CC2)CN([C@H]2CCC[C@H]2c2ccccc2C(C)C)C3)ccc1C(=O)NS(=O)(=O)c1cnc(NC[C@H]2CC[C@](C)(O)CC2)c([N+](=O)[O-])c1` (single isomer, unassigned) [Example A-160, N-((6-(((1r,4r)-4-hydroxy-4-methyl-cyclohexyl)methyl)amino)-5-nitro-pyridin-3-yl)sulfonyl)-4-(2-((1S,2S or 1R,2R)-2-(2-isopropylphenyl)cyclo-pentyl)-2,7-diazaspiro[3.5]nonan-7-yl)-2-((6-methoxy-1H-pyrrolo[2,3-b]pyridin-5-yl)oxy)benzamide] was run?
Answer: 1 nM

Question: Which IC50 does the source give for `CC(C)c1ccccc1[C@@H]1CCC[C@@H]1N1CC2(CCN(c3ccc(C(=O)NS(=O)(=O)c4ccc(NC[C@H]5CC[C@](C)(O)CC5)c([N+](=O)[O-])c4)c(Oc4cc5cc[nH]c5nc4Cl)c3)CC2)C1` (single isomer, unassigned) [Example D-232, 2-((6-chloro-1H-pyrrolo[2,3-b]pyridin-5-yl)oxy)-N-((4-((1r,4r)-4-hydroxy-4-methylcyclohexyl)methyl)amino)-3-nitrophenyl) sulfonyl)-4-(2-((1S,2S or 1R,2R)-2-(2-isopropylphenyl) cyclopentyl)-2,7-diazaspiro[3.5] nonan-7-yl)benzamide] here?
Answer: 1 nM

Question: For `COCCOc1nc2[nH]ccc2cc1Oc1cc(N2CCC3(CC2)CC(N2CCC[C@H]2c2ccccc2C(C)C)C3)ccc1C(=O)NS(=O)(=O)c1cc2c(c([N+](=O)[O-])c1)N[C@@H](C[C@H]1CC[C@](C)(O)CC1)CO2` (single isomer, unassigned) [Example D-21, N-(((S)-3-(((1r,4S)-4-hydroxy-4-methylcyclohexyl)methyl)-5-nitro-3,4-dihydro-2H-benzo[b][1,4]oxazin-7-yl)sulfonyl)-4-(2-((R or S)-2-(2-isopropylphenyl)pyrrolidin-1-yl)-7-azaspiro[3.5]nonan-7-yl)-2-((6-(2-methoxyethoxy)-1H-pyrrolo[2,3-b]pyridin-5-yl)oxy) benzamide], which IC50 is on record?
Answer: 1 nM

Question: Which IC50 does the source give for `CC(C)c1ccccc1[C@@H]1CCC[C@@H]1N1CC2(CCN(c3ccc(C(=O)NS(=O)(=O)c4cc5c(c([N+](=O)[O-])c4)N[C@@H]([C@H]4CC[C@](C)(O)CC4)CO5)c(Oc4cnc5[nH]cc(F)c5c4)c3)CC2)C1=O` (single isomer, unassigned) [Example D-248, 2-((3-fluoro-1H-pyrrolo[2,3-b]pyridin-5-yl)oxy)-N-(((S)-3-((1r,4S)-4-hydroxy-4-methylcyclohexyl)-5-nitro-3,4-dihydro-2H-benzo[b] [1,4]oxazin-7-yl)sulfonyl)-4-(2-((1S,2S or 1R,2R)-2-(2-isopropylphenyl)cyclopentyl)-1-oxo-2,7-diazaspiro [3.5]nonan-7-yl)benzamide] here?
Answer: 1 nM

Question: How did the IC50 turn out when `CC(C)c1ccccc1[C@@H]1CCCN1C1CC2(CCN(c3ccc(C(=O)NS(=O)(=O)c4cc5c(c([N+](=O)[O-])c4)N[C@@H]([C@H]4CC[C@](C)(O)CC4)CO5)c(Oc4cc5cc[nH]c5nc4O[C@H]4CCOC4)c3)CC2)C1` (single isomer, unassigned) [Example D-74, N-(((S)-3-((1r,4S)-4-hydroxy-4-methylcyclohexyl)-5-nitro-3,4-dihydro-2H-benzo[b][1,4]oxazin-7-yl)sulfonyl)-4-(2-((R or S)-2-(2-isopropylphenyl)pyrrolidin-1-yl)-7-azaspiro[3.5]nonan-7-yl)-2-((6-(((S)-tetrahydrofuran-3-yl)oxy)-1H-pyrrolo[2,3-b]pyridin-5-yl)oxy)benzamide] was run?
Answer: 1 nM

Question: With `CC(C)c1ccccc1[C@@H]1CCCN1C1CC2(CCN(c3ccc(C(=O)NS(=O)(=O)c4cc5c(c([N+](=O)[O-])c4)N[C@@H]([C@H]4CC[C@](C)(O)CC4)CO5)c(Oc4cc5cc[nH]c5nc4O[C@H]4CCNC4)c3)CC2)C1` (single isomer, unassigned) [Example D-225, N-(((S)-3-((1r,4S)-4-hydroxy-4-methylcyclohexyl)-5-nitro-3,4-dihydro-2H-benzo[b][1,4]oxazin-7-yl)sulfonyl)-4-(2-((R or S)-2-(2-isopropylphenyl)pyrrolidin-1-yl)-7-azaspiro[3.5]nonan-7-yl)-2-((6-(((S)-pyrrolidin-3-yl)oxy)-1H-pyrrolo[2,3-b]pyridin-5-yl)oxy)benzamide] as the compound, how does the IC50 read?
Answer: 1 nM

Question: `CC(C)c1ccccc1C1(O)CCCC1N1CC2(CCN(c3ccc(C(=O)NS(=O)(=O)c4cc5c(c([N+](=O)[O-])c4)N[C@@H]([C@H]4CC[C@](C)(O)CC4)CO5)c(Oc4cnc5[nH]cc(F)c5c4)c3)CC2)C1` (stereo partly drawn) [Example D-247, 2-((3-fluoro-1H-pyrrolo[2,3-b]pyridin-5-yl)oxy)-4-(2-(2-hydroxy-2-(2-isopropylphenyl)cyclopentyl)-2,7-diazaspiro[3.5]nonan-7-yl)-N-(((S)-3-((1r,4S)-4-hydroxy-4-methylcyclohexyl)-5-nitro-3,4-dihydro-2H-benzo[b][1,4]oxazin-7-yl)sulfonyl)benzamide] was tested. Which IC50 did it give?
Answer: 1 nM

Question: Which IC50 does the source give for `CO[C@H]1CC[C@H]([C@H]2COc3cc(S(=O)(=O)NC(=O)c4ccc(N5CCC6(CC5)CC(N5CCC[C@H]5c5ccccc5C(C)C)C6)cc4Oc4cnc5[nH]cc(F)c5c4)cc([N+](=O)[O-])c3N2)CC1` (single isomer, unassigned) [Example D-44, 2-((3-fluoro-1H-pyrrolo[2,3-b]pyridin-5-yl)oxy)-4-(2-((R or S)-2-(2-isopropylphenyl)pyrrolidin-1-yl)-7-azaspiro[3.5]nonan-7-yl)-N-(((S)-3-((1r,4S)-4-methoxycyclohexyl)-5-nitro-3,4-dihydro-2H-benzo[b][1,4]oxazin-7-yl)sulfonyl)benzamide] here?
Answer: 1 nM

Question: With `CC(=O)N1CCN(C2CC3(CCN(c4ccc(C(=O)NS(=O)(=O)c5cc6c(c([N+](=O)[O-])c5)N[C@@H]([C@H]5CC[C@](C)(O)CC5)CO6)c(Oc5cnc6[nH]cc(F)c6c5)c4)CC3)C2)[C@H](c2ccccc2C(C)C)C1` (single isomer, unassigned) [Example D-140, 4-(2-((R or S)-4-acetyl-2-(2-isopropylphenyl)piperazin-1-yl)-7-azaspiro[3.5]nonan-7-yl)-2-((3-fluoro-1H-pyrrolo [2,3-b]pyridin-5-yl)oxy)-N-(((S)-3-((1r,4S)-4-hydroxy-4-methylcyclohexyl)-5-nitro-3,4-dihydro-2H-benzo[b][1,4]oxazin-7-yl)sulfonyl)benzamide] as the compound, how does the IC50 read?
Answer: 1 nM

Question: With `CO[C@H]1CC[C@@H]([C@@H]2COc3cc(S(=O)(=O)NC(=O)c4ccc(N5CCC6(CC5)CC(N5CCC[C@H]5c5ccccc5C(C)C)C6)cc4Oc4cnc5[nH]cc(F)c5c4)cc([N+](=O)[O-])c3N2)CC1` (single isomer, unassigned) [Example D-46, 2-((3-fluoro-1H-pyrrolo[2,3-b]pyridin-5-yl)oxy)-4-(2-((R or S)-2-(2-isopropylphenyl)pyrrolidin-1-yl)-7-azaspiro[3.5]nonan-7-yl)-N-(((R)-3-((1s,4S)-4-methoxycyclohexyl)-5-nitro-3,4-dihydro-2H-benzo[b][1,4]oxazin-7-yl)sulfonyl)benzamide] as the compound, how does the IC50 read?
Answer: 1 nM

Same assay, conditions: Toledo cells, MTS, read-out: Toledo IC50

Question: With `CC(C)c1ccccc1[C@H]1CCCN1C1CC2(CCN(c3ccc(C(=O)NS(=O)(=O)c4cc5c(c([N+](=O)[O-])c4)NC([C@H]4COCCO4)CO5)c(Oc4cnc5[nH]cc(F)c5c4)c3)CC2)C1` (single isomer, unassigned) [Example D-50b, N-(((R or S)-3-((S)-1,4-dioxan-2-yl)-5-nitro-3,4-dihydro-2H-benzo[b][1,4]oxazin-7-yl)sulfonyl)-2-((3-fluoro-1H-pyrrolo[2,3-b]pyridin-5-yl)oxy)-4-(2-((R or S)-2-(2-isopropylphenyl)pyrrolidin-1-yl)-7-azaspiro[3.5]nonan-7-yl)benzamide] as the compound, how does the IC50 read?
Answer: 1 nM
